These results are taken from patent US20240215582A1, “METHODS OF CONTROLLING PLANT PATHOGENS” (Valent BioSciences LLC, priority 2022, published 2024).

In one test the test system is Alternaria solani. In words: Host plant efficacy assay (tomato). The test is classed as in vivo.
The next test deals with Botrytis cinerea. In words: In vitro growth on cervinomycin-amended growth media. The test is classed as cell-based.
The test system of a further test is Rhynchosporium secalis. The test is described as above. The test is classed as cell-based.

Turning to `COc1cc2oc3c(c(=O)c2cc1OC)C(=O)c1c(ccc2cc4c(c(O)c12)C(=O)N1CCOC1(C)C4)C3=O` (stereo not shown) [Cervinomycin A2, cervinomycin A2], the “% control Alternaria solani Tomato 1DBI” value in the test on Alternaria solani (11.3 ppm), in the test on Alternaria solani (45 ppm) and in the test with Alternaria solani (180 ppm) was 0 (0 (about 0%)) each time. For the same compound, the “% Control Botrytis cinerea” value with Botrytis cinerea (0.004 ppm in growth media) was determined as 3%; with Botrytis cinerea (0.016 ppm in growth media) it was 2%; in the test with Botrytis cinerea (0.063 ppm in growth media) it was 70%; in the test with Botrytis cinerea (0.25 ppm in growth media), 100%; in the test on Botrytis cinerea (1 ppm in growth media), 100%. Moreover, the “% Control Rhynchosporium secalis” value in the test on Rhynchosporium secalis (0.004 ppm in growth media) amounted to 21%; in the test on Rhynchosporium secalis (0.016 ppm in growth media), 71%; in the test with Rhynchosporium secalis (0.063 ppm in growth media), 98%; in the test with Rhynchosporium secalis (0.25 ppm in growth media), 99%; in the test on Rhynchosporium secalis (1 ppm in growth media), 100%.
